According to patent US20180221319A1, “METHODS OF TREATING SEIZURE DISORDERS AND PRADER-WILLI SYNDROME” (Ovid Therapeutics Inc., priority 2017, published 2018):

Assays:
[1] = plasma pharmacokinetics (elimination half-life, Cmax, AUC versus dose); settings: dose range of 5 mg-500 mg
Description: (§1) “PK” refers to the pharmacokinetic profile. Cmax is defined as the highest plasma drug concentration estimated during an experiment (ng/ml). Tmax is defined as the time when Cmax is estimated (min). AUC0-∞ is the total area under the plasma drug concentration-time curve, from drug administration until the drug is eliminated (ng·hr/ml or g*hr/ml). The area under the curve is governed by clearance. Clearance is defined as the volume of blood or plasma that is totally cleared of its content of drug per unit time (ml/min).

[2] = in vivo; settings: plasma
Description: as §1

- AUCs dose proportionality [1]: greater than proportional increase
- Cmax dose proportionality [1]: increases in a dose proportional manner
- half-life [2]: 4 to 6 h
SMILES: N[C@H]1C[C@@H](C(=O)O)CC1=C(F)F
